From patent US4430502A, “Pyridinyl substituted benzimidazoles and quinoxalines” (The Upjohn Company, priority 1982, dated 1984) come the findings set out here.

The experiment addresses T1, TXA2 synthetase (Homo sapiens, UniProt P24557).
T1 construct: human platelet microsomes (HPM); from tissue; host or cells: human platelet microsomes
T1 sequence (P24557 1-533): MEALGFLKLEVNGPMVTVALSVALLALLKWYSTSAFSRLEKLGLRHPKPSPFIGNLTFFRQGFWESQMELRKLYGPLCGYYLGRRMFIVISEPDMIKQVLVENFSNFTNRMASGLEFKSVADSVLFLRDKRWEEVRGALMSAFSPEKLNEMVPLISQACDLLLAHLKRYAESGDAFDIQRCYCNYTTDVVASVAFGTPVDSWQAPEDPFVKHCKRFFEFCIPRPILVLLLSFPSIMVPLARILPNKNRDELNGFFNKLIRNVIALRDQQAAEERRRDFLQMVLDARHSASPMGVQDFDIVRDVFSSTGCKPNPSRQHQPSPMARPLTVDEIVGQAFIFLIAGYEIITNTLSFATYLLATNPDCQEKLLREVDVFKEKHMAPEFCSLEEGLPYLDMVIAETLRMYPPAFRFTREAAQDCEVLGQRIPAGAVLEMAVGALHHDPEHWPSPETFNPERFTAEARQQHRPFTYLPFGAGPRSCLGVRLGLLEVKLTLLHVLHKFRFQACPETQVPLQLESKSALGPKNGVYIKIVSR
Briefly: TXA2 inhibition test: TXA2 generated from PGH2 with human platelet microsomes, response of superfused rabbit aortic strips. In kind it is biochemical. On the procedure:
The compounds of the present invention were tested for TXA2 inhibition as follows:
Rabbit aortic strips were superfused in series with Krebs solution. Thromboxane A2 (TXA2) was generated by mixing prostaglandin H2 (PGH2) with human platelet microsomes (HPM).
Potential inhibitors were tested by comparing the response of the rabbit aorta to the amount of TXA2 produced by mixing PGH2 and HPM without the test compound in the reaction medium and then the amount of TXA2 produced when the test compound was added to the HPM 5 minutes before the HPM was mixed with PGH2. […] For a discussion of TXA2 synthetase inhibition testing see, e.g., R. Gorman, supra.

Consider `c1cncc(Cc2ccc3nc[nH]c3c2)c1` [Example 3, 5-(3-Pyridinylmethyl)benzimidazole], for which the “effectiveness in inhibiting TXA2 formation” value (compared with the other compounds tested in this test system) is on record as “most effective”. Where the note is “test compound added to human platelet microsomes 5 minutes before mixing with PGH2, rabbit aorta response, read-out: approximate ED50 for inhibiting TXA2 formation (converted)”, the IC50 was around 478 nM.
